Measured values taken from PubChem BioAssay AID248 (DTP/NCI, 2004).
Values joined by “and” are separate entries in the source; they are usually repeats but may differ in a detail not shown here. Equal entries are not always repeated. Inconclusive results and toxic doses are left out. Rule as the data show it: active = T/C of 150% or more; inactive = T/C below 125%.

Tested on: L1210 leukemia ip in BDF1 mice, survival T/C
Test: NCI In Vivo Anticancer Drug Screen. Data for tumor model L1210 Leukemia (intraperitoneal) in B6D2F1 (BDF1) mice
Settings: endpoint: mean survival time, higher = longer survival
Outline: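 Read-out is survival time, reported as the treated-group measurement over the vehicle-control measurement.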

[1] = dose: 100.0 mg/kg/injection, schedule: Q01DX009 (ip), vehicle: saline
[2] = dose: 100.0 mg/kg/injection, schedule: Q04DX003 (ip), vehicle: saline
[3] = dose: 200.0 mg/kg/injection, schedule: Q01DX009 (ip), vehicle: saline
[4] = dose: 200.0 mg/kg/injection, schedule: Q04DX003 (ip), vehicle: saline
[5] = dose: 400.0 mg/kg/injection, schedule: Q01DX009 (ip), vehicle: saline
[6] = dose: 25.0 mg/kg/injection, schedule: Q01DX009 (ip), vehicle: Klucel (hydroxypropylcellulose) (HPC)
[7] = dose: 50.0 mg/kg/injection, schedule: Q01DX009 (ip), vehicle: Klucel (hydroxypropylcellulose) (HPC)
[8] = dose: 100.0 mg/kg/injection, schedule: Q01DX009 (ip), vehicle: Klucel (hydroxypropylcellulose) (HPC)
[9] = dose: 100.0 mg/kg/injection, schedule: Q01DX001 (ip), vehicle: saline with Tween-80
[10] = dose: 100.0 mg/kg/injection, schedule: Q01DX009 (ip), vehicle: saline with Tween-80
[11] = dose: 100.0 mg/kg/injection, schedule: Q04DX002 (ip), vehicle: saline with Tween-80
[12] = dose: 100.0 mg/kg/injection, schedule: Q04DX003 (ip), vehicle: saline with Tween-80
[13] = dose: 200.0 mg/kg/injection, schedule: Q01DX001 (ip), vehicle: saline with Tween-80
[14] = dose: 200.0 mg/kg/injection, schedule: Q01DX009 (ip), vehicle: saline with Tween-80
[15] = dose: 200.0 mg/kg/injection, schedule: Q04DX002 (ip), vehicle: saline with Tween-80
[16] = dose: 200.0 mg/kg/injection, schedule: Q04DX003 (ip), vehicle: saline with Tween-80
[17] = dose: 400.0 mg/kg/injection, schedule: Q01DX001 (ip), vehicle: saline with Tween-80
[18] = dose: 400.0 mg/kg/injection, schedule: Q01DX009 (ip), vehicle: saline with Tween-80
[19] = dose: 400.0 mg/kg/injection, schedule: Q04DX002 (ip), vehicle: saline with Tween-80
[20] = dose: 400.0 mg/kg/injection, schedule: Q04DX003 (ip), vehicle: saline with Tween-80
[21] = dose: 75.0 mg/kg/injection, schedule: Q01DX001 (ip), vehicle: saline
[22] = dose: 150.0 mg/kg/injection, schedule: Q01DX001 (ip), vehicle: saline
[23] = dose: 100.0 mg/kg/injection, schedule: Q04DX003 (ip), vehicle: Klucel (hydroxypropylcellulose) (HPC)

Measured: T/C

CC(=O)OCc1cccc(C)n1
inactive: [1] 97 % of control | [2] 94 % of control and 102 % of control | [3] 96 % of control | [4] 100 % of control | [5] 100 % of control | dose: 400.0 mg/kg/injection, schedule: Q04DX003 (ip), vehicle: saline 93 % of control and 97 % of control

Cc1onc(-c2ccccc2Cl)c1C(=O)NC(N)=S
inactive: [1] 103 % of control | [3] 101 % of control | [5] 104 % of control

N#CC1c2ccccc2CCN1C(=O)c1ccccc1 (stereo not given)
inactive: dose: 100.0 mg/kg/injection, schedule: Q01DX001 (ip), vehicle: carboxymethylcellulose (CMC) 98 % of control | dose: 200.0 mg/kg/injection, schedule: Q01DX001 (ip), vehicle: carboxymethylcellulose (CMC) 98 % of control | dose: 400.0 mg/kg/injection, schedule: Q01DX001 (ip), vehicle: carboxymethylcellulose (CMC) 93 % of control

Cc1noc2ncnc(N)c12
inactive: [6] 102 % of control | [7] 102 % of control | [8] 95 % of control

O=C(Nc1ncccn1)c1ccc(Cl)cc1Cl
inactive: dose: 50.0 mg/kg/injection, schedule: Q04DX003 (ip), vehicle: saline with Tween-80 93 % of control | [9] 103 % of control | [10] 102 % of control | [11] 93 % of control and 91 % of control | [12] 94 % of control and 100 % of control | [13] 96 % of control | [14] 102 % of control | [15] 104 % of control | [16] 91 % of control | [17] 96 % of control | [18] 100 % of control | [19] 105 % of control and 107 % of control | [20] 103 % of control and 92 % of control

Cn1ccccc1=O
inactive: dose: 100.0 mg/kg/injection, schedule: Q04DX002 (ip), vehicle: saline 104 % of control | dose: 200.0 mg/kg/injection, schedule: Q04DX002 (ip), vehicle: saline 98 % of control | dose: 400.0 mg/kg/injection, schedule: Q04DX002 (ip), vehicle: saline 104 % of control

CCC(=O)Oc1ccccc1C(=O)O
inactive: [6] 98 % of control | [7] 98 % of control | [8] 103 % of control

CC(C)(C)c1cc([N+](C)(C)C)cc(C(C)(C)C)n1
inactive: dose: 6.25 mg/kg/injection, schedule: Q01DX001 (ip), vehicle: saline 97 % of control | dose: 12.5 mg/kg/injection, schedule: Q01DX001 (ip), vehicle: saline 112 % of control | dose: 25.0 mg/kg/injection, schedule: Q01DX001 (ip), vehicle: saline 105 % of control

CN1CN(c2ccccc2)C2(CCNCC2)C1=O
inactive: [21] 102 % of control | [22] 96 % of control

CN1C(=O)C(Br)C(Br)c2ccccc21 (stereo not given)
inactive: dose: 100.0 mg/kg/injection, schedule: Q01DX001 (ip), vehicle: other 107 % of control | dose: 200.0 mg/kg/injection, schedule: Q01DX001 (ip), vehicle: other 102 % of control

COc1cccc(C(=O)c2ccccc2NC(C)=O)c1
inactive: [12] 93 % of control | [16] 94 % of control | [20] 93 % of control

O=C(NNc1ccc([N+](=O)[O-])cc1)c1ccccc1
inactive: [23] 94 % of control | dose: 200.0 mg/kg/injection, schedule: Q04DX003 (ip), vehicle: Klucel (hydroxypropylcellulose) (HPC) 94 % of control | dose: 400.0 mg/kg/injection, schedule: Q04DX003 (ip), vehicle: Klucel (hydroxypropylcellulose) (HPC) 100 % of control

O=C(Nc1ccccc1F)OC/C=C/c1ccccc1
inactive: [8] 104 % of control | dose: 200.0 mg/kg/injection, schedule: Q01DX009 (ip), vehicle: Klucel (hydroxypropylcellulose) (HPC) 97 % of control | dose: 400.0 mg/kg/injection, schedule: Q01DX009 (ip), vehicle: Klucel (hydroxypropylcellulose) (HPC) 95 % of control

O=C(Nc1ccc(Cl)cc1[N+](=O)[O-])Nc1ccccc1C(F)(F)F
inactive: [9] 93 % of control | [10] 94 % of control and 90 % of control | [11] 95 % of control and 96 % of control | [12] 97 % of control | [13] 90 % of control | [14] 100 % of control and 92 % of control | [15] 93 % of control and 98 % of control | [16] 88 % of control | [17] 101 % of control | [18] 94 % of control and 87 % of control | [19] 91 % of control | [20] 88 % of control

O=c1cc[nH]c2n[nH]nc12
inactive: dose: 100.0 mg/kg/injection, schedule: Q01DX001 (ip), vehicle: Klucel (hydroxypropylcellulose) (HPC) 94 % of control | dose: 200.0 mg/kg/injection, schedule: Q01DX001 (ip), vehicle: Klucel (hydroxypropylcellulose) (HPC) 94 % of control | dose: 400.0 mg/kg/injection, schedule: Q01DX001 (ip), vehicle: Klucel (hydroxypropylcellulose) (HPC) 96 % of control

O=C1CCCC1CNCc1ccccc1 (stereo not given)
inactive: [21] 103 % of control | [22] 100 % of control

COC1C(COC(C)=O)OC(n2cnc3c(=O)[nH]cnc32)C1OC(C)=O (stereo not given)
inactive: dose: 100.0 mg/kg/injection, schedule: Q01DX001 (ip), vehicle: saline 112 % of control | dose: 200.0 mg/kg/injection, schedule: Q01DX001 (ip), vehicle: saline 108 % of control | dose: 400.0 mg/kg/injection, schedule: Q01DX001 (ip), vehicle: saline 103 % of control

O=C1CCCCC1C(=O)C(F)(F)F (stereo not given)
inactive: dose: 12.5 mg/kg/injection, schedule: Q01DX009 (ip), vehicle: other 104 % of control | dose: 12.5 mg/kg/injection, schedule: Q04DX003 (ip), vehicle: other 103 % of control | dose: 25.0 mg/kg/injection, schedule: Q01DX009 (ip), vehicle: other 104 % of control | dose: 25.0 mg/kg/injection, schedule: Q04DX003 (ip), vehicle: other 93 % of control | dose: 50.0 mg/kg/injection, schedule: Q01DX009 (ip), vehicle: other 98 % of control | dose: 50.0 mg/kg/injection, schedule: Q04DX003 (ip), vehicle: other 97 % of control | dose: 75.0 mg/kg/injection, schedule: Q01DX009 (ip), vehicle: other 97 % of control | dose: 115.0 mg/kg/injection, schedule: Q01DX009 (ip), vehicle: other 87 % of control | dose: 170.0 mg/kg/injection, schedule: Q01DX009 (ip), vehicle: other 89 % of control

CCOC(=O)NCC(CCN1CCCCC1)(CCN1CCCCC1)c1cccc2ccccc12
inactive: [23] 107 % of control

CC(/C=N/N(C)C)=N\N(C)C
inactive: [2] 92 % of control | [4] 102 % of control

COc1ccc(OC)c(-c2cc3c(OC)ccc(OC)c3[nH]2)c1
inactive: dose: 25.0 mg/kg/injection, schedule: Q04DX002 (ip), vehicle: saline with Tween-80 96 % of control | dose: 50.0 mg/kg/injection, schedule: Q04DX002 (ip), vehicle: saline with Tween-80 86 % of control | [11] 99 % of control
